In patent US11753408B2, “Compounds and method for blocking transmission of malarial parasite” (The United States of America, as represented by the …, priority 2016, dated 2023):

Experiments:
[1] = Microsomal stability (rat); assay type: in vitro ADME; details: rat microsomes
PAMPA permeability = assay type: in vitro ADME
[2] = tested on: Asexual parasites of P. falciparum strain 3D7; assay: In vitro drug activity on asexual parasites (SYBR Green assay); assay type: cell-based, Plasmodium falciparum
Protocol: Cell culture. Asexual parasites of P. falciparum strain 3D7 were cultured as described previously [Trager W, et al., Journal of Parasitology 2005, 91: 484-486], Stage III-V gametocytes were selected and enriched with 3-day treatment with 50 mM N-acetylglucosamine (NAG) and the following Percoll density gradient centrifugation after gametocyte production [Tanaka T Q, et al., Molecular and Biochemical Parasitology, 2011, 111: 160-163], Gametocytes of HB3 and Dd2 strains were produced and then set up for assay in a similar process. HepG2 cells (ATCC, cat. no. 77400) were cultured in 175-cm^2 tissue culture flasks with 30 ml growth medium at 37° C. in a 5% CO2 humidified atmosphere. Growth medium was made with Dulbecco's Modified Eagle Medium with 10% fetal bovine serum (FBS). Growth medium was replaced every other day and cells were passed at 75% confluence.
Asexual parasites of P. falciparum strain 3D7 were cultured as described previously (Trager, W. et al., J. Parasitol. 2005, 91(3): 484-486). Drug activity on asexual stage parasites was tested using a SYBR Green assay as described previously (Eastman, R. T. et al., Antimicrob. Agents Chemother. 2013, 57(1): 425-435; Smilkstein, M. et al., Antimicrob. Agents Chemother. 2004, 48(5): 1803-1806). Briefly, parasites were diluted to 0.5% parasitemia in complete culture medium with 2% hematocrit and drugs diluted in DMSO (≤0.5%) and were loaded into a 96-well plate (200 μl/well). No drug and RBC alone wells were included as positive and background controls, respectively, and each testing condition was examined in duplicated. After 72 h incubation under the standard culture condition and a freeze-thaw lysis step at −80° C. and room temperature, 100 μl/well of lysis buffer containing SYBR Green I was added to the parasite culture and incubated for 30 min at room temperature. The fluorescence of each well was measured at 520 nm following excitation at 490 nm using a FLUOstar Optima™ microplate reader (BMG Labtech).

mTOR = mTOR (Homo sapiens, UniProt P42345); assay: mTOR activity (no method described); assay type: biochemical
Solubility at pH 7.4 = assay type: physicochemical

| Structure (SMILES) | Microsomal Stability (rat) T1/2 [1] [min] | PAMPA Permeability (PAMPA permeability) [nm/s] | EC50 [2] [µM] | mTOR (mTOR) | Sol @ pH 7.4 (Solubility at pH 7.4) [ug/mL] |
| --- | --- | --- | --- | --- | --- |
| O=C(NCC(F)(F)F)c1ccc(-n2c(=O)ccc3cnc4ccc(-c5ccc(Cl)cc5)cc4c32)cc1 [Compound 89] | >30 | < 10 | 0.0521 | 2.689 µM | <1 |
| CN(C)CCNC(=O)c1ccc(-n2c(=O)ccc3cnc4ccc(-c5ccc(Cl)cc5)cc4c32)cc1 [Compound 90] | >30 | 8020 | 0.0741 | 19.84 µM | 13.6 |
| O=C(NC1CC1)c1ccc(-n2c(=O)ccc3cnc4ccc(-c5ccc(F)cc5)cc4c32)cc1 [Compound 91] | >30 | 542 | 0.033 | 4.415 µM | <1 |
| O=C(NC1CC1)c1ccc(-n2c(=O)ccc3cnc4ccc(-c5ccc(Cl)cc5)nc4c32)cc1 [Compound 93] | >30 | 763 | 0.0279 | 0.4507 µM | <1 |
| O=C(NC1CN(CCO)C1)c1ccc(-n2c(=O)ccc3cnc4ccc(-c5ccc(Cl)cc5)cc4c32)cc1 [Compound 94] | >30 | 19 | 0.0249 | 4.188 µM | 13.6 |
| CN(C)CCN1CCN(C(=O)c2ccc(-n3c(=O)ccc4cnc5ccc(-c6ccc(Cl)cc6)cc5c43)cc2)CC1 [Compound 95] | >30 | 6740 | 0.0157 | 1.731 µM | 54.7 |
| O=C(NC1CCNC1)c1ccc(-n2c(=O)ccc3cnc4ccc(-c5ccc(Cl)cc5)cc4c32)cc1 (stereo not drawn) [Compound 96] | >30 | 78 | 0.0373 | 1.291 µM | 11.4 |
| NC1(c2ccc(-c3ccc4ncc5ccc(=O)n(-c6ccc(C(=O)NC7CC7)cc6)c5c4c3)cc2)CC1 [Compound 97] | >30 | 358 | 0.101 | 1.4 µM | 7.1 |
| O=C(O)c1cc(Cl)ccc1-c1ccc2ncc3ccc(=O)n(-c4ccc(C(=O)N5CCOCC5)cc4)c3c2c1 [Compound 135] | >30.0 | 30 | 77.8 | inactive | >80.0 |
| CC(C)(C)c1ccc(-c2ccc3ncc4ccc(=O)n(-c5ccc(C(=O)N6CCOCC6)cc5)c4c3c2)cc1 [Compound 196] | 18 | 859 | – | 100 µM | <1 |
| CNCc1ccc(-c2ccc3ncc4ccc(=O)n(-c5ccc(C(=O)N6CCOCC6)cc5)c4c3c2)cc1 [Compound 198] | >30 | 61 | 0.264 | 13.84 µM | >75 |
| COc1cc(C(=O)N2CCOCC2)ccc1-n1c(=O)ccc2cnc3ccc(-c4ccc(Cl)cc4)cc3c21 [Compound 199] | 5.6 | 14400 | 0.109 | 16.51 µM | 1.4 |
| CC(C)c1ccc(-c2ccc3ncc4ccc(=O)n(-c5ccc(C(=O)N6CCOCC6)cc5)c4c3c2)cc1 [Compound 201] | 12.6 | 138 | 1.62 | 17.28 µM | <1 |
| CN(C)CCOc1ccc(-c2ccc3ncc4ccc(=O)n(-c5ccc(C(=O)N6CCOCC6)cc5)c4c3c2)cc1 [Compound 202] | >30 | 4150 | 0.12 | 3.267 µM | 57.8 |
| O=C(NC1CC1)c1ccc(-n2c(=O)ccc3cnc4ccc(-c5ccc(F)c(O)c5)cc4c32)cc1 [Compound 203] | 29.3 | 7500 | 0.0172 | 0.5128 µM | 1.2 |

Second part, the compound after the results:

| Microsomal Stability (rat) T1/2 [1] [min] | PAMPA Permeability (PAMPA permeability) [nm/s] | EC50 [2] [µM] | mTOR (mTOR) | Sol @ pH 7.4 (Solubility at pH 7.4) [ug/mL] | Structure (SMILES) |
| --- | --- | --- | --- | --- | --- |
| >30 | < 10 | 0.0143 | 0.2571 µM | <1 | O=C(NC1CC1)c1ccc(-n2c(=O)ccc3cnc4ccc(-c5ccc(Cl)c(O)c5)cc4c32)cc1 [Compound 204] |
| 7.1 | 4280 | 0.0489 | 19.64 µM | 44.1 | O=C(NCCCN1CCCC1)c1ccc(-n2c(=O)ccc3cnc4ccc(-c5ccc(Cl)cc5)cc4c32)cc1 [Compound 206] |
| >30 | < 10 | 0.145 | 0.1688 µM | 58.1 | CC(N)c1ccc(-c2ccc3ncc4ccc(=O)n(-c5ccc(C(=O)N6CCOCC6)cc5)c4c3c2)cc1 (stereo not drawn) [Compound 207] |
| 13.2 | 2480 | 0.0659 | 21.75 µM | 35.5 | CN(C)C(=O)c1ccc(-n2c(=O)ccc3c[n+]([O-])c4ccc(-c5ccc(Cl)cc5)cc4c32)cc1 [Compound 208] |
| 4 | < 10 | 0.538 | 2.492 µM | <1 | CCCCNC(=O)c1ccc(-n2c(=O)ccc3cnc4ccc(-c5ccc(Cl)cc5)cc4c32)cc1 [Compound 209] |
| >30 | 2270 | 3.88 | 43.09 µM | >83 | O=C(c1ccc(-n2c(=O)ccc3cnc4ccc(-c5cccc(CCN6CCCC6)c5)cc4c32)cc1)N1CCOCC1 [Compound 211] |
| >30 | 1890 | 3.89 | 15.8 µM | >79 | CN(C)CCc1cccc(-c2ccc3ncc4ccc(=O)n(-c5ccc(C(=O)N6CCOCC6)cc5)c4c3c2)c1 [Compound 212] |
| 18.9 | < 10 | 0.13 | 1.299 µM | <1 | CC(C)NC(=O)c1ccc(-n2c(=O)ccc3cnc4ccc(-c5ccc(Cl)cc5)cc4c32)cc1 [Compound 213] |
| 21.2 | 3330 | 0.0188 | 0.3394 µM | <1 | O=C(NCCCO)c1ccc(-n2c(=O)ccc3cnc4ccc(-c5ccc(Cl)cc5)cc4c32)cc1 [Compound 214] |
| 6.3 | 4920 | 0.177 | 0.7638 µM | <1 | O=C(NCCN1CCOCC1)c1ccc(-n2c(=O)ccc3cnc4ccc(-c5ccc(Cl)cc5)cc4c32)cc1 [Compound 215] |
| 6.7 | 11 | 0.0422 | 0.8321 µM | <1 | CCNC(=O)c1ccc(-n2c(=O)ccc3cnc4ccc(-c5ccc(Cl)cc5)cc4c32)cc1 [Compound 216] |
| >30 | 1300 | 0.531 | 17.83 µM | >83 | O=C(c1ccc(-n2c(=O)ccc3cnc4ccc(-c5ccc(CCN6CCCC6)cc5)cc4c32)cc1)N1CCOCC1 [Compound 217] |
| >30 | 1000 | 1.68 | 16.25 µM | >69 | CN(C)CC#Cc1ccc2ncc3ccc(=O)n(-c4ccc(C(=O)N5CCOCC5)cc4)c3c2c1 [Compound 218] |
| – | 11800 | 0.058 | 7.119 µM | 3.4 | Cc1cc(C(=O)NC2CC2)ccc1-n1c(=O)ccc2cnc3ccc(-c4ccc(F)cc4)cc3c21 [Compound 223] |
| – | < 10 | 46 | 100 µM | >74 | Cc1cc(C(=O)NC2CC2)ccc1-n1c(=O)ccc2cnc3ccc(-c4ccc(C5(N)CC5)cc4)cc3c21 [Compound 224] |
